In article PMC5356695, “A phase 1 study of oral ridaforolimus in pediatric patients with advanced solid tumors” (Oncotarget, 2016):
Where two headings read alike, the source gives them in different places.

System: pediatric patients with advanced solid tumors
Conditions: for Leukopenia (treatment-related AE): laboratory values only
Procedure: This phase 1, multicenter, open-label study was conducted at a total of 8 study sites (3 study sites in the United States and 5 Innovative Therapies for Children with Cancer [ITCC] Consortium centers [2 in the United Kingdom and 3 in France]) between January 31, 2012, and the data cutoff, January 14, 2014 (ClinicalTrials.gov identifier NCT01431534; European Clinical Trials Database [EudraCT] number 2011-000729-55). An enteric-coated tablet formulation of ridaforolimus was orally administered for 5 consecutive days and not administered for 2 consecutive days per week in 28-day cycles until progression, unacceptable toxicity, or consent withdrawal. […] Dose escalation was conducted by using a modified toxicity probability intervals method that targeted a 30% DLT rate and started at 22 mg/m^2 (the equivalent of the adult RP2D [27], a 40-mg dose in adults with a BSA of 1.8 m^2). […] Dosing was adjusted based on BSA and rounded to the nearest 10-mg tablet. Patients were to be treated at sequentially rising dose levels until a preliminary MTD was identified.
Toxicity was graded according to the National Cancer Institute Common Terminology Criteria for Adverse Events, version 4.0 [42]. Safety data were reported for all patients who received at least 1 dose of the study drug. […] Once the RP2D of ridaforolimus was defined, an expansion cohort to be treated at the RP2D was planned to obtain additional safety, tolerability, and pharmacokinetic data.

CO[C@H]1C[C@@H]2CC[C@@H](C)[C@@](O)(O2)C(=O)C(=O)N2CCCC[C@H]2C(=O)O[C@H]([C@H](C)C[C@@H]2CC[C@@H](OP(C)(C)=O)[C@H](OC)C2)CC(=O)[C@H](C)/C=C(\C)[C@@H](O)[C@@H](OC)C(=O)[C@H](C)C[C@H](C)/C=C/C=C/C=C/1C [ridaforolimus]
Patients with serious adverse events related to study treatment (22 mg/m^2, grade 3 oral herpes): 1 patient | Stomatitis (treatment-related AE) (22 mg/m^2 n = 4, any grade): 2 (50) n (%) | Thrombocytopenia (treatment-related AE) (22 mg/m^2 n = 4, any grade): 2 (50) n (%) | Vomiting (treatment-related AE) (22 mg/m^2 n = 4, any grade): 1 (25) n (%) | Leukopenia (treatment-related AE) (22 mg/m^2 n = 4, any grade): 1 (25) n (%) | Anemia (treatment-related AE) (22 mg/m^2 n = 4, grades 3–4): 0 n (%) | Decreased appetite (treatment-related AE) (22 mg/m^2 n = 4, grades 3–4): 0 n (%) | Decreased weight (treatment-related AE) (22 mg/m^2 n = 4, grades 3–4): 0 n (%) | Diarrhea (treatment-related AE) (22 mg/m^2 n = 4, grades 3–4): 0 n (%) | Dry mouth (treatment-related AE) (22 mg/m^2 n = 4, grades 3–4): 0 n (%) | Dysgeusia (treatment-related AE) (22 mg/m^2 n = 4, grades 3–4): 0 n (%) | Epistaxis (treatment-related AE) (22 mg/m^2 n = 4, grades 3–4): 0 n (%) | Fatigue (treatment-related AE) (22 mg/m^2 n = 4, grades 3–4): 0 n (%) | Headache (treatment-related AE) (22 mg/m^2 n = 4, grades 3–4): 0 n (%) | Hypercholesterolemia (treatment-related AE) (22 mg/m^2 n = 4, grades 3–4): 0 n (%) | Hyperglycemia (treatment-related AE) (22 mg/m^2 n = 4, grades 3–4): 0 n (%) | Hypertriglyceridemia (treatment-related AE) (22 mg/m^2 n = 4, grades 3–4): 0 n (%) | Hypocalcemia (treatment-related AE) (22 mg/m^2 n = 4, grades 3–4): 0 n (%) | Hypokalemia (treatment-related AE) (22 mg/m^2 n = 4, grades 3–4): 0 n (%) | Hypophosphatemia (treatment-related AE) (22 mg/m^2 n = 4, grades 3–4): 1 (25) n (%) | Increased ALT (treatment-related AE) (22 mg/m^2 n = 4, grades 3–4): 1 (25) n (%) | Increased AST (treatment-related AE) (22 mg/m^2 n = 4, grades 3–4): 0 n (%) | Increased alkaline phosphatase (treatment-related AE) (22 mg/m^2 n = 4, grades 3–4): 0 n (%) | Increased bilirubin (treatment-related AE) (22 mg/m^2 n = 4, grades 3–4): 0 n (%) | Increased γ-glutamyltransferase (treatment-related AE) (22 mg/m^2 n = 4, grades 3–4): 0 n (%) | Lymphopenia (treatment-related AE) (22 mg/m^2 n = 4, grades 3–4): 0 n (%) | Nausea (treatment-related AE) (22 mg/m^2 n = 4, grades 3–4): 0 n (%) | Neutropenia (treatment-related AE) (22 mg/m^2 n = 4, grades 3–4): 0 n (%) | Oral herpes (treatment-related AE) (22 mg/m^2 n = 4, grades 3–4): 1 (25) n (%) | Patients with ≥1 treatment-related adverse event (22 mg/m^2 n = 4, grades 3–4): 2 (50) n (%) | Photophobia (treatment-related AE) (22 mg/m^2 n = 4, grades 3–4): 0 n (%) | Rash (treatment-related AE) (22 mg/m^2 n = 4, grades 3–4): 0 n (%) | Stomatitis (treatment-related AE) (22 mg/m^2 n = 4, grades 3–4): 0 n (%) | Thrombocytopenia (treatment-related AE) (22 mg/m^2 n = 4, grades 3–4): 0 n (%) | Vomiting (treatment-related AE) (22 mg/m^2 n = 4, grades 3–4): 0 n (%) | Leukopenia (treatment-related AE) (22 mg/m^2 n = 4, grades 3–4): 0 n (%) | Stomatitis (treatment-related AE) (28 mg/m^2 n = 3, any grade): 3 (100) n (%) | Thrombocytopenia (treatment-related AE) (28 mg/m^2 n = 3, any grade): 1 (33) n (%) | Vomiting (treatment-related AE) (28 mg/m^2 n = 3, any grade): 0 n (%) | Leukopenia (treatment-related AE) (28 mg/m^2 n = 3, any grade): 2 (67) n (%) | Anemia (treatment-related AE) (28 mg/m^2 n = 3, grades 3–4): 0 n (%) | Decreased appetite (treatment-related AE) (28 mg/m^2 n = 3, grades 3–4): 0 n (%) | Decreased weight (treatment-related AE) (28 mg/m^2 n = 3, grades 3–4): 0 n (%) | Diarrhea (treatment-related AE) (28 mg/m^2 n = 3, grades 3–4): 0 n (%) | Dry mouth (treatment-related AE) (28 mg/m^2 n = 3, grades 3–4): 0 n (%) | Dysgeusia (treatment-related AE) (28 mg/m^2 n = 3, grades 3–4): 0 n (%) | Epistaxis (treatment-related AE) (28 mg/m^2 n = 3, grades 3–4): 0 n (%) | Fatigue (treatment-related AE) (28 mg/m^2 n = 3, grades 3–4): 0 n (%) | Headache (treatment-related AE) (28 mg/m^2 n = 3, grades 3–4): 0 n (%) | Hypercholesterolemia (treatment-related AE) (28 mg/m^2 n = 3, grades 3–4): 1 (33) n (%) | Hyperglycemia (treatment-related AE) (28 mg/m^2 n = 3, grades 3–4): 0 n (%) | Hypertriglyceridemia (treatment-related AE) (28 mg/m^2 n = 3, grades 3–4): 0 n (%) | Hypocalcemia (treatment-related AE) (28 mg/m^2 n = 3, grades 3–4): 0 n (%) | Hypokalemia (treatment-related AE) (28 mg/m^2 n = 3, grades 3–4): 0 n (%) | Hypophosphatemia (treatment-related AE) (28 mg/m^2 n = 3, grades 3–4): 0 n (%) | Increased ALT (treatment-related AE) (28 mg/m^2 n = 3, grades 3–4): 1 (33) n (%) | Increased AST (treatment-related AE) (28 mg/m^2 n = 3, grades 3–4): 0 n (%) | Increased alkaline phosphatase (treatment-related AE) (28 mg/m^2 n = 3, grades 3–4): 0 n (%) | Increased bilirubin (treatment-related AE) (28 mg/m^2 n = 3, grades 3–4): 0 n (%) | Increased γ-glutamyltransferase (treatment-related AE) (28 mg/m^2 n = 3, grades 3–4): 0 n (%) | Lymphopenia (treatment-related AE) (28 mg/m^2 n = 3, grades 3–4): 0 n (%) | Nausea (treatment-related AE) (28 mg/m^2 n = 3, grades 3–4): 0 n (%) | Neutropenia (treatment-related AE) (28 mg/m^2 n = 3, grades 3–4): 0 n (%) | Oral herpes (treatment-related AE) (28 mg/m^2 n = 3, grades 3–4): 0 n (%) | Patients with ≥1 treatment-related adverse event (28 mg/m^2 n = 3, grades 3–4): 2 (67) n (%) | Photophobia (treatment-related AE) (28 mg/m^2 n = 3, grades 3–4): 0 n (%) | Rash (treatment-related AE) (28 mg/m^2 n = 3, grades 3–4): 0 n (%) | Stomatitis (treatment-related AE) (28 mg/m^2 n = 3, grades 3–4): 0 n (%) | Thrombocytopenia (treatment-related AE) (28 mg/m^2 n = 3, grades 3–4): 1 (33) n (%) | Vomiting (treatment-related AE) (28 mg/m^2 n = 3, grades 3–4): 0 n (%) | Leukopenia (treatment-related AE) (28 mg/m^2 n = 3, grades 3–4): 0 n (%) | Patients discontinued due to an adverse event (grade 5 gastric perforation related to underlying disease) (33 mg/m^2 (n = 13), 8%): 1 patients | Patients with DLT (grade 3 increased ALT) (33 mg/m^2, 18 patients evaluable for DLTs overall): 1 patient | Patients with serious adverse events related to study treatment (33 mg/m^2, grade 2 rectal pain, grade 2 seizure): 2 patients | Stomatitis (treatment-related AE) (33 mg/m^2 n = 13, any grade): 10 (77) n (%) | Thrombocytopenia (treatment-related AE) (33 mg/m^2 n = 13, any grade): 10 (77) n (%) | Vomiting (treatment-related AE) (33 mg/m^2 n = 13, any grade): 2 (15) n (%) | Leukopenia (treatment-related AE) (33 mg/m^2 n = 13, any grade): 4 (31) n (%) | Anemia (treatment-related AE) (33 mg/m^2 n = 13, grades 3–4): 0 n (%) | Decreased appetite (treatment-related AE) (33 mg/m^2 n = 13, grades 3–4): 0 n (%) | Decreased weight (treatment-related AE) (33 mg/m^2 n = 13, grades 3–4): 0 n (%) | Diarrhea (treatment-related AE) (33 mg/m^2 n = 13, grades 3–4): 0 n (%) | Dry mouth (treatment-related AE) (33 mg/m^2 n = 13, grades 3–4): 0 n (%) | Dysgeusia (treatment-related AE) (33 mg/m^2 n = 13, grades 3–4): 0 n (%) | Epistaxis (treatment-related AE) (33 mg/m^2 n = 13, grades 3–4): 0 n (%) | Fatigue (treatment-related AE) (33 mg/m^2 n = 13, grades 3–4): 0 n (%) | Headache (treatment-related AE) (33 mg/m^2 n = 13, grades 3–4): 0 n (%) | Hypercholesterolemia (treatment-related AE) (33 mg/m^2 n = 13, grades 3–4): 0 n (%) | Hyperglycemia (treatment-related AE) (33 mg/m^2 n = 13, grades 3–4): 0 n (%) | Hypertriglyceridemia (treatment-related AE) (33 mg/m^2 n = 13, grades 3–4): 1 (8) n (%) | Hypocalcemia (treatment-related AE) (33 mg/m^2 n = 13, grades 3–4): 0 n (%) | Hypokalemia (treatment-related AE) (33 mg/m^2 n = 13, grades 3–4): 0 n (%) | Hypophosphatemia (treatment-related AE) (33 mg/m^2 n = 13, grades 3–4): 0 n (%) | Increased ALT (treatment-related AE) (33 mg/m^2 n = 13, grades 3–4): 3 (23) n (%) | Increased AST (treatment-related AE) (33 mg/m^2 n = 13, grades 3–4): 1 (8) n (%)
